Measured values as given in patent US20170281700A1, “PHAGE THERAPY FOR TARGETING ENTEROCOCCI” (priority 2014, published 2017).

Tested on: E. faecalis V583 VRE
Assay type: cell-based, Enterococcus faecalis
Description: The insert depicts the clot model.
E. faecalis V583 (VRE) is an example of a vancomycin resistant E. faecalis that was announced by the Centers for Disease Control (CDC) as one of the major bacterial threats today.

Question: For `CN[C@H](CC(C)C)C(=O)N[C@H]1C(=O)N[C@@H](CC(N)=O)C(=O)N[C@H]2C(=O)N[C@H]3C(=O)N[C@H](C(=O)N[C@H](C(=O)O)c4cc(O)cc(O)c4-c4cc3ccc4O)[C@H](O)c3ccc(c(Cl)c3)Oc3cc2cc(c3O[C@@H]2O[C@H](CO)[C@@H](O)[C@H](O)[C@H]2O[C@H]2C[C@](C)(N)[C@H](O)[C@H](C)O2)Oc2ccc(cc2Cl)[C@H]1O` [vancomycin], which “colony growth on agar plate from seeded culture aliquots” value (24 hours incubation in 37 °C) is on record?
Answer: growth was observed

Question: What about the “effect on growth and viability” value (EFLK1 2.5×10^7 phages/ml, vancomycin 15 μg/ml) of the same molecule?
Answer: somewhat affects its growth and viability
